Measured values: US9012443B2 (Amgen Inc., priority 2011, dated 2015)

What was measured:
Nav 1.7 [1] = target: T1, Nav 1.7 (Homo sapiens (Human), UniProt Q15858); test: Nav 1.7 IWQ in vitro assay (IonWorks Quattro population patch-clamp); assay type: cell-based; settings: 293 cells stably transfected with Nav 1.7; second part of table; read-out: Nav1.7 IWQ IC50 IP
Procedure, shortened: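 HEK293 cells stably expressing Nav 1.7, recorded by automated population patch-clamp with a train of depolarizations producing increasing inactivation. Single compound concentration added during 3–8 min unclamped period, then same protocol repeated. Leak-corrected current at 26th pulse to −20 mV gave percent block (duplicate); IC50 fitted from concentration–block curves.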

Nav 1.7 [2] = target: T1, Nav 1.7; test: Nav 1.7 in vitro PX assay (PatchXpress whole cell voltage clamp); assay type: cell-based; settings: 293 cells, human Nav1.7, partially inactivated state; read-out: Nav1.7 PX IC50 IP
Procedure, shortened: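 HEK293 cells stably expressing human Nav1.7, whole-cell voltage clamp on PatchXpress, held at potential giving 20–50% inactivation; current elicited by 20 msec pulse to −10 mV.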

T1 sequence (Q15858 whole entry): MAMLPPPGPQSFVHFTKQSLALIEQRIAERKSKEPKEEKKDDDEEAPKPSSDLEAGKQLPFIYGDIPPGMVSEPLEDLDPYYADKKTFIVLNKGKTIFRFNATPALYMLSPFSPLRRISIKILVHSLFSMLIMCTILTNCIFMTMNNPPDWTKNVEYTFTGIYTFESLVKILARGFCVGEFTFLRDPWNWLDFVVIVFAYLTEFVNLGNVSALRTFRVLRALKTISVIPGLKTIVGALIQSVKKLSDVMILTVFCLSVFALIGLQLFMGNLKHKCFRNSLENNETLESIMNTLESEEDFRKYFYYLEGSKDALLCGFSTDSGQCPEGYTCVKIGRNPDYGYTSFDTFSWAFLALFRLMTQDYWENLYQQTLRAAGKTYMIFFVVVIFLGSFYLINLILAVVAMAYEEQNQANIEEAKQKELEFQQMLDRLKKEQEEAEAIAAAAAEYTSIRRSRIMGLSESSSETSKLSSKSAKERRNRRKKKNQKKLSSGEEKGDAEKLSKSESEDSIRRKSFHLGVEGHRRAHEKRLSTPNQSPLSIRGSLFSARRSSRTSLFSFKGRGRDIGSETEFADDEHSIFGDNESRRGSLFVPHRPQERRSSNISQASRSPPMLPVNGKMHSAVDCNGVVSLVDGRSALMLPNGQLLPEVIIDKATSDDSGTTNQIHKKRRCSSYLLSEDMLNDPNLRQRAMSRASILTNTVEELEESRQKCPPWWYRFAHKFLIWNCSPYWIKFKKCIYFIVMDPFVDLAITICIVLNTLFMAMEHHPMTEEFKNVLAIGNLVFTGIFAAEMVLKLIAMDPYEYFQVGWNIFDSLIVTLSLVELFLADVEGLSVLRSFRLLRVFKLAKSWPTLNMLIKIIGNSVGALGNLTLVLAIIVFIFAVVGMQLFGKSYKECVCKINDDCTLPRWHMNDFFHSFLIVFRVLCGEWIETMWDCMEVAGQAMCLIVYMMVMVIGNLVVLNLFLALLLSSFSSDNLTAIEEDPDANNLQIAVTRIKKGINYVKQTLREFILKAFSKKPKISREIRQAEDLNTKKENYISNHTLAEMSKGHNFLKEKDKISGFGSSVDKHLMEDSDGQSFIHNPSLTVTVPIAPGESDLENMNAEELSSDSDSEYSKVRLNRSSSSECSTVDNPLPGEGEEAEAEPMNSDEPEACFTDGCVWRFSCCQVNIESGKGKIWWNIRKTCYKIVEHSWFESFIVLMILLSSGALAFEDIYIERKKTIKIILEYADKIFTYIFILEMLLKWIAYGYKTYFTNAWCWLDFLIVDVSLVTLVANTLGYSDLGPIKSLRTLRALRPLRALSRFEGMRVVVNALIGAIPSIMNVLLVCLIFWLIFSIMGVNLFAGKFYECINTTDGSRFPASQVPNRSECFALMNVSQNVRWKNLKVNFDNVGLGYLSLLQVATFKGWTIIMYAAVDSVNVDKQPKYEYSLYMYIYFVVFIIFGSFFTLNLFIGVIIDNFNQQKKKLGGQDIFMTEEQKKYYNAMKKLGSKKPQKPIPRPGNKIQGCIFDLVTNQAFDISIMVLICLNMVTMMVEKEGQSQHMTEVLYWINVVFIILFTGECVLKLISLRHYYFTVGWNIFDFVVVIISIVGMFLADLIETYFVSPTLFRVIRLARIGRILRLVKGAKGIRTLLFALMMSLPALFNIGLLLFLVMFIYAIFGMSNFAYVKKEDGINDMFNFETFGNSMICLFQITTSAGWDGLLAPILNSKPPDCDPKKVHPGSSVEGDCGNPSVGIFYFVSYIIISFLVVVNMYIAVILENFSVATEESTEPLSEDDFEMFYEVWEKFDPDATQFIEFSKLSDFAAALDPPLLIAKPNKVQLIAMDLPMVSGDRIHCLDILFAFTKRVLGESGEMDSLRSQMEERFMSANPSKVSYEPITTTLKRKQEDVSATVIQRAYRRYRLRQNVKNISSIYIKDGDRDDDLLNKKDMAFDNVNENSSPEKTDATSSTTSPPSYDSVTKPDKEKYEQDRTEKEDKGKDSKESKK

Row | IC50 (Nav 1.7 [1]) [µM] | IC50 (Nav 1.7 [2]) [µM] | Structure (SMILES)
1 | 0.02 | 0.914 | COc1cc(OC(F)(F)F)ccc1-c1nccc2cc(S(=O)(=O)Nc3ccncn3)ccc12 [Example 153, 1-(2-METHOXY-4-(TRIFLUOROMETHOXY)PHENYL)-N-(PYRIMIDIN-4-YL)ISOQUINOLINE-6-SULFONAMIDE]
2 | 0.04 | 2.18 | COc1cc(F)c(C)cc1-c1nccc2cc(S(=O)(=O)Nc3ccncn3)ccc12 [Example 154]
3 | 0.03 | 1.13 | COc1cc2ccccc2cc1-c1nccc2cc(S(=O)(=O)Nc3ccncn3)ccc12 [Example 155, 1-(3-METHOXYNAPHTHALEN-2-YL)-N-(PYRIMIDIN-4-YL)ISOQUINOLINE-6-SULFONAMIDE]
4 | 0.22 | 2.85 | O=S(=O)(Nc1ccncn1)c1ccc2c(-c3ccc(C(F)(F)F)cc3Cl)nccc2c1 [Example 156, 1-(2-CHLORO-4-(TRIFLUOROMETHYL)PHENYL)-N-(PYRIMIDIN-4-YL)ISOQUINOLINE-6-SULFONAMIDE]
5 | 0.18 | 5.03 | COc1cccc(F)c1-c1nccc2cc(S(=O)(=O)Nc3ccncn3)ccc12 [Example 158, 1-(2-FLUORO-6-METHOXYPHENYL)-N-(PYRIMIDIN-4-YL)ISOQUINOLINE-6-SULFONAMIDE]
6 | 0.02 | 1.33 | COc1cc(Cl)ccc1-c1nccc2cc(S(=O)(=O)Nc3ccncn3)ccc12 [Example 160, 1-(4-CHLORO-2-METHOXYPHENYL)-N-(PYRIMIDIN-4-YL)ISOQUINOLINE-6-SULFONAMIDE]
7 | 0.02 | 0.393 | COc1cc(Cl)c(Cl)cc1-c1nccc2cc(S(=O)(=O)Nc3ccncn3)ccc12 [Example 161, 1-(4,5-DICHLORO-2-METHOXYPHENYL)-N-(PYRIMIDIN-4-YL)ISOQUINOLINE-6-SULFONAMIDE]
8 | 5.43 | > 30 | Cc1cc2cnn(C)c2cc1-c1nccc2cc(S(=O)(=O)Nc3ccncn3)ccc12 [Example 165]
9 | 0.05 | 4.26 | COc1cc(F)ccc1-c1nccc2cc(S(=O)(=O)Nc3ccncn3)ccc12 [Example 167, 1-(4-FLUORO-2-METHOXYPHENYL)-N-(PYRIMIDIN-4-YL)ISOQUINOLINE-6-SULFONAMIDE]
10 | 0.03 | 1.6 | COc1ncc(Cl)cc1-c1nccc2cc(S(=O)(=O)Nc3ccncn3)ccc12 [Example 168, 1-(5-CHLORO-2-METHOXYPYRIDIN-3-YL)-N-(PYRIMIDIN-4-YL)ISOQUINOLINE-6-SULFONAMIDE]
11 | 0.73 | 23 | COc1cccc(OC)c1-c1nccc2cc(S(=O)(=O)Nc3ccncn3)ccc12 [Example 171, 1-(2,6-DIMETHOXYPHENYL)-N-(PYRIMIDIN-4-YL)ISOQUINOLINE-6-SULFONAMIDE]
12 | 0.27 | 16.6 | COc1ccc(-c2nccc3cc(S(=O)(=O)Nc4ccncn4)ccc23)c(OC)c1 [Example 172, 1-(2,4-DIMETHOXYPHENYL)-N-(PYRIMIDIN-4-YL)ISOQUINOLINE-6-SULFONAMIDE]
13 | 0.43 | 8.75 | CCOc1ccccc1-c1nccc2cc(S(=O)(=O)Nc3ccncn3)ccc12 [Example 173, 1-(2-ETHOXYPHENYL)-N-(PYRIMIDIN-4-YL)ISOQUINOLINE-6-SULFONAMIDE]
14 | 0.64 | 29.8 | O=S(=O)(Nc1ccncn1)c1ccc2c(-c3ccccc3OCC(F)(F)F)nccc2c1 [Example 174, N-(PYRIMIDIN-4-YL)-1-(2-(2,2,2-TRIFLUOROETHOXY)PHENYL)ISOQUINOLINE-6-SULFONAMIDE]
15 | 0.03 | 0.507 | COc1ncc(Cl)cc1-c1nccc2cc(S(=O)(=O)Nc3nccs3)ccc12 [Example 176, 1-(5-CHLORO-2-METHOXYPYRIDIN-3-YL)-N-(THIAZOL-2-YL)ISOQUINOLINE-6-SULFONAMIDE]
16 | 0.04 | 0.439 | COc1ccc(C(F)(F)F)cc1-c1nccc2cc(S(=O)(=O)Nc3nccs3)ccc12 [Example 180, 1-(2-METHOXY-5-(TRIFLUOROMETHYL)PHENYL)-N-(THIAZOL-2-YL)ISOQUINOLINE-6-SULFONAMIDE]
